10 compounds from patent US20250188040A1, “PHARMACEUTICAL COMPOSITIONS COMPRISING WRN HELICASE INHIBITORS” (Vividion Therapeutics, Inc., priority 2022, published 2025) can be followed below.

Structures are written as SMILES. Where two headings read alike, the source gives them in different places.

The target of assay [1] is T1, WRN C727 (Homo sapiens, UniProt Q14191).
T1 construct: endogenous in cells; host or cells: OCI-AML2
Put plainly: Target engagement, in vitro (lysate), OCI-AML2. In kind it is binding. The following applies: read-out: OCI-AML2 WRN C727 TE50 in vitro (lysate). Put shortly:
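Percent engagement of WRN C727 is expressed against DMSO-treated samples, measured by PRM mass spectrometry of streptavidin-enriched, probe-tagged tryptic peptides. Compound dose responses preceded probe labelling of solvent-exposed cysteines, in either living OCI-AML2 cells or their lysates.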

In assay [2] the target is hWRN(519-1227)_C-H3CV-GFP-10His (Homo sapiens, UniProt Q14191). Put plainly: Helicase Assay for WRN Inhibition (ATP-dependent, fluorescence based).
Protocol: Effects of compounds on WRN helicase activity were assessed with the Helicase Assay for WRN Inhibition. This is an ATP-dependent (inclusion of ATP is important and is required for this assay) fluorescence based assay using recombinant WRN and a fluorogenic DNA substrate.
WRN activity was normalized to signal from wells without WRN protein (background, 0% activity) and wells with protein treated only with DMSO (positive control, 10000 activity). For each compound the potency of inhibition (IC50) was determiined using Graphpad Prism.
Assay [3] has as its system HCT 116 cells. Put plainly: Cell growth assay (CellTiter-Glo 2.0), HCT 116 MSI-H cell line. Particulars: Homo sapiens, HCT-116, 120 h, read-out: Cell Growth Inhibition GI50 HCT-116. (Cellular ATP, detected with luciferase, serves as a proxy for viable cell number.)
In assay [4] the test system is SW480 cells. Nature of the assay: Cell growth assay (CellTiter-Glo 2.0), SW480 MSS cell line. Particulars: Homo sapiens, SW480, 120 h, read-out: Cell Growth Inhibition GI50 SW480.
Where [5] appears, read: WRN Helicase IC50, 30 min preincubation with ATP, 30 min reaction.

T1 sequence (Q14191 whole entry): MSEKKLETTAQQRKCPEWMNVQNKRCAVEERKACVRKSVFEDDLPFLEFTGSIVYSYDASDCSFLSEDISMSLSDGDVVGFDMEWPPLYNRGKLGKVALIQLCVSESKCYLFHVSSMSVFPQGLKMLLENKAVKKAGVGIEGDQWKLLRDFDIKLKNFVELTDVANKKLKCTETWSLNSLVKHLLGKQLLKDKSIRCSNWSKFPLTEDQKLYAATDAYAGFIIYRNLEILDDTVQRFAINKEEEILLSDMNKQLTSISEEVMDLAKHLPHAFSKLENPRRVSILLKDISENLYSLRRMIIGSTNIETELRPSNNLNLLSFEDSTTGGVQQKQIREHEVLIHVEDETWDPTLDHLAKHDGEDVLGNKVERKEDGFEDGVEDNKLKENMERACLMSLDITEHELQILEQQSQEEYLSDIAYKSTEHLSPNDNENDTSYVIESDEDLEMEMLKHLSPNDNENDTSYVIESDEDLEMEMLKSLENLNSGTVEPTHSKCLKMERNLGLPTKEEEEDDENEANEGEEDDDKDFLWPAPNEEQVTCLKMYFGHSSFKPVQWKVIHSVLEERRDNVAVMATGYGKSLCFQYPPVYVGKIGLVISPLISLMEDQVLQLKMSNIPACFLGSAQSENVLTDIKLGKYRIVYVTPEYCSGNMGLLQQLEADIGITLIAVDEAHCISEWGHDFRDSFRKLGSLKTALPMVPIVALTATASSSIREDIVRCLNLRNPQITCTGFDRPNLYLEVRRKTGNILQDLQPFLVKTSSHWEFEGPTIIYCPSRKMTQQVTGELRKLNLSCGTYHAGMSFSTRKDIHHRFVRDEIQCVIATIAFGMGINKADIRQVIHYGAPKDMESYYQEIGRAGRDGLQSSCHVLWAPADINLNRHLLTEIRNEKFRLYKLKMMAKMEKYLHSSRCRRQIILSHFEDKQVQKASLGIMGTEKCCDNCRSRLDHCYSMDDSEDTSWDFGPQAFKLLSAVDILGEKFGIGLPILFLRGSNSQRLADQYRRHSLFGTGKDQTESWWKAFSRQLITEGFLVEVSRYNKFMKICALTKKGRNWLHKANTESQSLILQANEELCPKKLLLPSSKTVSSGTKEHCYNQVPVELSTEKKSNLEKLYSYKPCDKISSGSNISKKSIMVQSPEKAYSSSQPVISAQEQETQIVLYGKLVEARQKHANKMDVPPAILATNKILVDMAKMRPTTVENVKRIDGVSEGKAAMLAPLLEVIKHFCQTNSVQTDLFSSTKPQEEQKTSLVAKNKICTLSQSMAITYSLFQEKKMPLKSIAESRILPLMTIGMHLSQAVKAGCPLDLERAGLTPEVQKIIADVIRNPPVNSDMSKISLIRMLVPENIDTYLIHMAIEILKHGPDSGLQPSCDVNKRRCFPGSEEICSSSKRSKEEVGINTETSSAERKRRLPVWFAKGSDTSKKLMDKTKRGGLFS
hWRN(519-1227)_C-H3CV-GFP-10His, sequence (Q14191 519-1227): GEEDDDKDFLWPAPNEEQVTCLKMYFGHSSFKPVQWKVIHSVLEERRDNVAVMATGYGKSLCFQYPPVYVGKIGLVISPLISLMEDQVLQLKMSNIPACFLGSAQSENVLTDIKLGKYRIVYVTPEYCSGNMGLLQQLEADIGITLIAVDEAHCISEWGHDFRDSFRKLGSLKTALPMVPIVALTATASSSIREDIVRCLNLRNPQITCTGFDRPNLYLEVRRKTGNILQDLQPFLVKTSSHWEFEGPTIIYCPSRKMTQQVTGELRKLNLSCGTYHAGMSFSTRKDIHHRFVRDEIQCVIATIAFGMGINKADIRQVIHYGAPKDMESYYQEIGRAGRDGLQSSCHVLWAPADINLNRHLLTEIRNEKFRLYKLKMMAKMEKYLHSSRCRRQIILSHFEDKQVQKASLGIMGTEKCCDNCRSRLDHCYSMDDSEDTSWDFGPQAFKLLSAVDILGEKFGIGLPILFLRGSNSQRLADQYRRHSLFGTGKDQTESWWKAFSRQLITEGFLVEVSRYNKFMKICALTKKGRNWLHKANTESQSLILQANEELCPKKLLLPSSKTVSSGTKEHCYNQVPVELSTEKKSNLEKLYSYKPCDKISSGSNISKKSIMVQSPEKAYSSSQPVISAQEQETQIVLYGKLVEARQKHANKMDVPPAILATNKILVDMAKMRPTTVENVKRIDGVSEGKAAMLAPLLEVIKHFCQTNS

As usually defined, the GI50 is the concentration giving 50% growth inhibition. For `CCC(F)(F)c1ncc(C(=O)N[C@H](/C=C/S(C)(=O)=O)C2CC2)c(Oc2ccccc2)n1` [Example 230, (S,E)-N-(1-cyclopropyl-3-(methylsulfonyl)allyl)-2-(1,1-difluoropropyl)-4-phenoxypyrimidine-5-carboxamide], the IC50 in assay [1] stood at 810 nM; in assay [2] (setting [5]) it was 110 nM. The GI50 in assay [3] is 16.6 nM; in assay [4], 14000 nM.
The corresponding values for `C[C@@H]1CC[C@H](c2ncc(C(=O)N[C@@H](C)/C=C/S(C)(=O)=O)c(Oc3ccccc3)n2)C1` (racemic) [Example 215] are 9620 nM, 2200 nM, 1400 nM and 8200 nM.
Regarding `C[C@@H](/C=C/S(C)(=O)=O)NC(=O)c1cnc(C2(C(F)(F)F)CC2)nc1Oc1ccccc1` [Example 101, (S,E)-N-(4-(methylsulfonyl)but-3-en-2-yl)-4-phenoxy-2-(1-(trifluoromethyl)cyclopropyl)pyrimidine-5-carboxamide], the figures for the IC50 in assay [1] and in assay [2] (setting [5]) were 6030 nM and 1100 nM, respectively. For the same compound, the GI50 turned out to be 374 nM in assay [3] and 7860 nM in assay [4].
Take `CC(/C=C/S(C)(=O)=O)NC(=O)c1cc(F)c(C2=CCCC2)nc1Oc1ccccc1` (stereo in doubt) [Example 206, (R,E)-6-(cyclopent-1-en-1-yl)-5-fluoro-N-(4-(methylsulfonyl)but-3-en-2-yl)-2-phenoxynicotinamide]: the results for the IC50 in assay [1] and in assay [2] were 20000 nM and 11000 nM, respectively. For the same compound, the figures for the GI50 in assay [3] and in assay [4] were 5700 nM and 8600 nM, respectively.
On to `C[C@@H](/C=C/S(C)(=O)=O)NC(=O)c1cnc(C2CCCC2)nc1Oc1ccccc1F` [Example 115, (S,E)-2-cyclopentyl-4-(2-fluorophenoxy)-N-(4-(methylsulfonyl)but-3-en-2-yl)pyrimidine-5-carboxamide], for which the IC50 in assay [1] was 30100 nM; in assay [2] (setting [5]), 2900 nM. Besides, the GI50 in assay [3] is 2100 nM; in assay [4], over 10000 nM.
As for `CC1(c2ncc(C(=O)N3CC(=CS(C)(=O)=O)C3)c(Oc3ccccc3)n2)CC1` [Example 39, (2-(1-methylcyclopropyl)-4-phenoxypyrimidin-5-yl)(3-((methylsulfonyl)methylene)azetidin-1-yl)methanone], the IC50 came to 640 nM in assay [1] and 240 nM in assay [2]. Further, the figures for the GI50 in assay [3] and in assay [4] were 110 nM and 14000 nM, respectively.
`CC(F)(F)c1cc(Oc2ccccc2)c(C(=O)N[C@H](/C=C/S(C)(=O)=O)C2CC2)cn1` [Example 231, (S,E)-N-(1-cyclopropyl-3-(methylsulfonyl)allyl)-6-(1,1-difluoroethyl)-4-phenoxynicotinamide]: the IC50 in assay [1] was found to be 420 nM; in assay [2] (setting [5]), 210 nM. In addition, the GI50 is 38 nM in assay [3] and 61000 nM in assay [4].
The corresponding values for `CS(=O)(=O)/C=C/[C@@H](NC(=O)c1cnc(CC2CC2)nc1Oc1ccccc1)C1CC1` [Example 36, (S,E)-N-(1-cyclopropyl-3-(methylsulfonyl)allyl)-2-(cyclopropylmethyl)-4-phenoxypyrimidine-5-carboxamide] are 450 nM, 185 nM, 59 nM and 17700 nM.
The corresponding values for `CC(C)(C)c1ncc(C(=O)N[C@H](/C=C/S(C)(=O)=O)CC2CC2)c(Oc2ccccc2)n1` [Example 65, (S,E)-2-(tert-butyl)-N-(1-cyclopropyl-4-(methylsulfonyl)but-3-en-2-yl)-4-phenoxypyrimidine-5-carboxamide] are 1170 nM, 300 nM, 87 nM and 25400 nM.
Regarding `CC(C)(C)c1ncc(C(=O)N2CC(=CS(=O)(=O)C3CCOCC3)C2)c(Oc2ccccc2)n1` [Example 62, (2-(tert-butyl)-4-phenoxypyrimidin-5-yl)(3-(((tetrahydro-2H-pyran-4-yl)sulfonyl)methylene)azetidin-1-yl)methanone], the IC50 in assay [1] was determined as 4090 nM; in assay [2], 650 nM. Further, the GI50 was 265 nM in assay [3] and 13200 nM in assay [4].
